Among the data in ChEMBL document CHEMBL5104153, “De novo design of type II topoisomerase inhibitors as potential antimicrobial agents targeting a novel binding region” (RSC Med Chem, 2022) are IC50 and MIC values, retold here.

Where only a bound is given, the exact number is not on record here.

Assay [1] can be described thus: Inhibition of Escherichia coli topoisomerase 4 assessed as relaxation of supercoiled plasmid pBR322 DNA and measured after 30 mins.
The next assay relates to Staphylococcus aureus. The assay can be described thus: Antibacterial activity against Staphylococcus aureus measured by broth microdilution assay.
In the next assay the test system is Escherichia coli. The assay can be described thus: Antibacterial activity against Escherichia coli measured by broth microdilution assay. For orientation: Broth dilution looks for growth in wells or tubes with falling amounts of substance.
The target of the next assay is DNA gyrase (Escherichia coli, UniProt P0AES4+P0AES6). The assay can be described thus: Inhibition of Escherichia coli DNA gyrase supercoiling activity using pBR322 as substrate incubated for 30 mins measured by gel-based assay. Type of assay: protein-complex assay.

For `CCOc1cccc(-c2cccc(C(=O)N[C@@H](CN)c3ccccc3)c2)c1F`, the IC50 (commonly the concentration needed to halve the response being measured) in assay [1] is more than 100 µM. As to `Cl.NCC(NC(=O)c1cccc(-c2cccs2)c1)c1ccc(O)cc1` (configuration not stated), the MIC with Staphylococcus aureus and in the assay with Escherichia coli was 8 µg/mL throughout. Further, the IC50 in assay [1] is more than 540 µM; at DNA gyrase, 0.3 µM. On to `NC[C@H](NC(=O)c1cccc(-c2ccccc2C(F)(F)F)c1)c1ccccc1`, for which the IC50 in assay [1] was more than 100 µM. In the case of `COc1ccccc1-c1cccc(C(=O)NC(CN)c2cccc(O)c2)c1` (configuration not stated), the IC50 in assay [1] is more than 100 µM.
